Measured values as given in ChEMBL document CHEMBL5634139, “Novel substituted 4-(Arylethynyl)-Pyrrolo[2,3-d]pyrimidines negative allosteric modulators (NAMs) of the metabotropic glutamate receptor subtype 5 (mGlu5) Treat depressive disorder in mice” (Eur J Med Chem, 2023).
Active and inactive are the calls of the source. The rule behind the calls is not given here.

What was measured:
[1] = target: Metabotropic glutamate receptor 5 (Rattus norvegicus, UniProt P31424); experiment: Negative allosteric modulation of rat mGluR5 expressed in HEK293 assessed as decrease in intracellular calcium incubated for 30 mins by Fluo-6 calcium dye based FLIPR assay; type: functional, cell-based
Chain of Metabotropic glutamate receptor 5 (P31424 whole entry): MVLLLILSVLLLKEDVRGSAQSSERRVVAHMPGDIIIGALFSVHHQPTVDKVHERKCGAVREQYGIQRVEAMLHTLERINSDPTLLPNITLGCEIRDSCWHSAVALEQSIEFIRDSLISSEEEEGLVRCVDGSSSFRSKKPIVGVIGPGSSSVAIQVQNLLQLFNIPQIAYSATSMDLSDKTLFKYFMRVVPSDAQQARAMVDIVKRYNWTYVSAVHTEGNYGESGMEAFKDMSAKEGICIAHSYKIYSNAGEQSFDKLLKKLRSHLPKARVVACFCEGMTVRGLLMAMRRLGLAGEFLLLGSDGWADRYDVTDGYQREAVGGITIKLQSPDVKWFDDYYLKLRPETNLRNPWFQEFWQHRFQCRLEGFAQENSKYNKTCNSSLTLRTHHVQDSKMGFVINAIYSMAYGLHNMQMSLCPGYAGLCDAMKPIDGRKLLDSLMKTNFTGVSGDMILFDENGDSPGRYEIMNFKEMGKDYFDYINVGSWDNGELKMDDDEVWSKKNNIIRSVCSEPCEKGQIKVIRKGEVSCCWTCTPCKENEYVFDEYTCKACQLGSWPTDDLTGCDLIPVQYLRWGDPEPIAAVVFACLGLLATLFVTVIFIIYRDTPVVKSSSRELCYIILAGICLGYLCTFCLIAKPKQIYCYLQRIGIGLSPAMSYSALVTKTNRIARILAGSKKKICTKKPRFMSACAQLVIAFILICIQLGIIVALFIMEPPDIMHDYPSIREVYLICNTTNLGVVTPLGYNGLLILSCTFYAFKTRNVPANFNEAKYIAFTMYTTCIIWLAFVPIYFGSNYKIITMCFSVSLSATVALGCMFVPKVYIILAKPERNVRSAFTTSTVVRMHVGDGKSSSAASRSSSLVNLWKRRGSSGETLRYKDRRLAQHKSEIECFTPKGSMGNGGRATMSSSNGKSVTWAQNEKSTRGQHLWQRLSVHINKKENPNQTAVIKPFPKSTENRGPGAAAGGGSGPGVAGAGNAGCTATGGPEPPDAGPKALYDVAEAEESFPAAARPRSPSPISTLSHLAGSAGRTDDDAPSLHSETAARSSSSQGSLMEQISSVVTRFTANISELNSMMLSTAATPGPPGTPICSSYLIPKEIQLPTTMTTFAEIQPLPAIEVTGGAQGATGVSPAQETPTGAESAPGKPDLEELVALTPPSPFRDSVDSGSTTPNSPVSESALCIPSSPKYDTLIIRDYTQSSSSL

Mus musculus [2] = experiment: Antidepressant activity in chronic unpredictable mild stress induced depression C57BL/6J mouse model assessed as increase in frequency entering the central area at 10 mg/kg,IG administration for 3 days by open field test; type: functional, organism-based; conditions: time 3.0 day
Mus musculus [3] = experiment: Antidepressant activity in chronic unpredictable mild stress induced depression C57BL/6J mouse model assessed as increase in time spent in central area at 10 mg/kg,IG administration for 3 days by open field test; type: functional, organism-based; conditions: time 3.0 day
Mus musculus [4] = experiment: Antidepressant activity in chronic unpredictable mild stress induced depression C57BL/6J mouse model assessed as upregulation of 5-HT level in peripheral serum at 20 mg/kg,IG administration for 3 days by ELISA; type: functional, organism-based; conditions: time 3.0 day
Mus musculus [5] = experiment: Antidepressant activity in chronic unpredictable mild stress induced depression C57BL/6J mouse model assessed as decrease in immobility time at 5 to 20 mg/kg,IG administration for 3 days by tail suspension test; type: functional, organism-based; conditions: dose 5-20 mg/kg, time 3.0 day
Mus musculus [6] = experiment: Antidepressant activity in chronic unpredictable mild stress induced depression C57BL/6J mouse model assessed as decrease in immobility time at 5 to 20 mg/kg,IG administration for 3 days by forced swimming test; type: functional, organism-based; conditions: dose 5-20 mg/kg, time 3.0 day
Mus musculus [7] = experiment: Antidepressant activity in chronic unpredictable mild stress induced depression C57BL/6J mouse model assessed as increase in body weight at 5 to 20 mg/kg,IG administration for 3 days; type: functional, organism-based; conditions: dose 5-20 mg/kg, time 3.0 day
Mus musculus [8] = experiment: Antidepressant activity in chronic unpredictable mild stress induced depression C57BL/6J mouse model assessed as downregulation of CORT level in peripheral serum at 20 mg/kg,IG administration for 3 days by ELISA; type: functional, organism-based; conditions: time 3.0 day
Mus musculus [9] = experiment: Antidepressant activity in chronic unpredictable mild stress induced depression C57BL/6J mouse model assessed as upregulation of GluA2 expression in hippocampus at 5 to 20 mg/kg,IG administration for 3 days by Western blotting analysis; type: functional, organism-based; conditions: dose 5-20 mg/kg, time 3.0 day
Mus musculus [10] = experiment: Antidepressant activity in chronic unpredictable mild stress induced depression C57BL/6J mouse model assessed as downregulation of CORT level in peripheral serum at 10 mg/kg,IG administration for 3 days by ELISA; type: functional, organism-based; conditions: time 3.0 day
Mus musculus [11] = experiment: Antidepressant activity in chronic unpredictable mild stress induced depression C57BL/6J mouse model assessed as upregulation of BDNF expression in hippocampus at 10 mg/kg,IG administration for 3 days by Western blotting analysis; type: functional, organism-based; conditions: time 3.0 day
Mus musculus [12] = experiment: Antidepressant activity in chronic unpredictable mild stress induced depression C57BL/6J mouse model assessed as upregulation of GluA1 expression in hippocampus at 5 to 20 mg/kg,IG administration for 3 days by Western blotting analysis; type: functional, organism-based; conditions: dose 5-20 mg/kg, time 3.0 day
Mus musculus [13] = experiment: Antidepressant activity in chronic unpredictable mild stress induced depression C57BL/6J mouse model assessed as upregulation of TrkB phosphorylation in hippocampus at 10 mg/kg,IG administration for 3 days by Western blotting analysis; type: functional, organism-based; conditions: time 3.0 day
[14] = Toxicity in chronic unpredictable mild stress induced depression C57BL/6J mouse model assessed as change in AST level in liver at 40 mg/kg,IG administration for 3 days by ELISA; type: organism-based; conditions: in vivo, po, 72 h, time 3 day
Mus musculus [15] = experiment: Antidepressant activity in chronic unpredictable mild stress induced depression C57BL/6J mouse model assessed as upregulation of PKA phosphorylation in hippocampus at 20 mg/kg,IG administration for 3 days by Western blotting analysis; type: functional, organism-based; conditions: time 3.0 day
Mus musculus [16] = experiment: Antidepressant activity in chronic unpredictable mild stress induced depression C57BL/6J mouse model assessed as upregulation of TrkB phosphorylation in hippocampus at 20 mg/kg,IG administration for 3 days by Western blotting analysis; type: functional, organism-based; conditions: time 3.0 day
[17] = Toxicity in chronic unpredictable mild stress induced depression C57BL/6J mouse model assessed as change in creatine kinase level in heart at 40 mg/kg,IG administration for 3 days by ELISA; type: organism-based; conditions: in vivo, po, 72 h, time 3 day
Mus musculus [18] = experiment: Antidepressant activity in chronic unpredictable mild stress induced depression C57BL/6J mouse model assessed as increase in time spent in central area at 20 mg/kg,IG administration for 3 days by open field test; type: functional, organism-based; conditions: time 3.0 day
[19] = Toxicity in chronic unpredictable mild stress induced depression C57BL/6J mouse model assessed as change in ALT level in liver at 40 mg/kg,IG administration for 3 days by ELISA; type: organism-based; conditions: in vivo, po, 72 h, time 3 day
Mus musculus [20] = experiment: Antidepressant activity in chronic unpredictable mild stress induced depression C57BL/6J mouse model assessed as change in total distance travelled at 5 to 20 mg/kg,IG administration for 3 days by open field test; type: functional, organism-based; conditions: dose 5-20 mg/kg, time 3.0 day
Mus musculus [21] = experiment: Antidepressant activity in chronic unpredictable mild stress induced depression C57BL/6J mouse model assessed as upregulation of BDNF expression in hippocampus at 20 mg/kg,IG administration for 3 days by Western blotting analysis; type: functional, organism-based; conditions: time 3.0 day
Mus musculus [22] = experiment: Antidepressant activity in chronic unpredictable mild stress induced depression C57BL/6J mouse model assessed as increase in frequency entering the central area at 20 mg/kg,IG administration for 3 days by open field test; type: functional, organism-based; conditions: time 3.0 day
Mus musculus [23] = experiment: Antidepressant activity in chronic unpredictable mild stress induced depression C57BL/6J mouse model assessed as downregulation of CORT level in peripheral serum at 5 mg/kg,IG administration for 3 days by ELISA; type: functional, organism-based; conditions: time 3.0 day
Mus musculus [24] = experiment: Antidepressant activity in chronic unpredictable mild stress induced depression C57BL/6J mouse model assessed as upregulation of 5-HT level in peripheral serum at 5 mg/kg,IG administration for 3 days by ELISA; type: functional, organism-based; conditions: time 3.0 day
Mus musculus [25] = experiment: Antidepressant activity in chronic unpredictable mild stress induced depression C57BL/6J mouse model assessed as increase in frequency entering the central area at 5 mg/kg,IG administration for 3 days by open field test; type: functional, organism-based; conditions: time 3.0 day
Mus musculus [26] = experiment: Antidepressant activity in chronic unpredictable mild stress induced depression C57BL/6J mouse model assessed as decrease in immobility time at 5 mg/kg,IG administration for 3 days by tail suspension test; type: functional, organism-based; conditions: time 3.0 day
Mus musculus [27] = experiment: Antidepressant activity in chronic unpredictable mild stress induced depression C57BL/6J mouse model assessed as change in total distance travelled at 5 mg/kg,IG administration for 3 days by open field test; type: functional, organism-based; conditions: time 3.0 day
Mus musculus [28] = experiment: Antidepressant activity in chronic unpredictable mild stress induced depression C57BL/6J mouse model assessed as decrease in immobility time at 5 mg/kg,IG administration for 3 days by forced swimming test; type: functional, organism-based; conditions: time 3.0 day
Mus musculus [29] = experiment: Antidepressant activity in chronic unpredictable mild stress induced depression C57BL/6J mouse model assessed as increase in body weight at 5 mg/kg,IG administration for 3 days; type: functional, organism-based; conditions: time 3.0 day
Mus musculus [30] = experiment: Antidepressant activity in chronic unpredictable mild stress induced depression C57BL/6J mouse model assessed as increase in time spent in central area at 5 mg/kg,IG administration for 3 days by open field test; type: functional, organism-based; conditions: time 3.0 day

## Cn1c(C(=O)Nc2ccccc2)cc2c(C#Cc3ccccc3)ncnc21
[1]
  IC50: 75.4 nM

## COc1ccc(C#Cc2ncnc3c2cc(C(=O)Nc2ccc(C)cc2)n3C)cc1
[1]
  IC50: 241 nM

## COc1ccc(C#Cc2ncnc3c2cc(C(=O)Nc2ccc(N(C)C)cc2)n3C)cc1
[1]
  IC50: 824 nM

## Cn1c(C(=O)Nc2ccc(F)cc2)cc2c(C#Cc3ccc(F)cc3)ncnc21
[1]
  IC50: 90.8 nM

## COc1ccc(NC(=O)c2cc3c(C#Cc4ccccc4)ncnc3n2C)cc1
Mus musculus [2]
  Activity: Active
Mus musculus [3]
  Activity: Active
Mus musculus [4]
  Activity: Active
Mus musculus [5]
  Activity: Active
Mus musculus [6]
  Activity: Active
[1]
  IC50: 11.5 nM
Mus musculus [7]
  Activity: Active
Mus musculus [8]
  Activity: Active
Mus musculus [9]
  Activity: Active
Mus musculus [10]
  Activity: Active
Mus musculus [11]
  Activity: Active
Mus musculus [12]
  Activity: Active
Mus musculus [13]
  Activity: Active
[14]
  Activity: Non-Toxic
Mus musculus [15]
  Activity: Active
Mus musculus [16]
  Activity: Active
[17]
  Activity: Non-Toxic
Mus musculus [18]
  Activity: Active
[19]
  Activity: Non-Toxic
Mus musculus [20]
  Activity: inactive
Mus musculus [21]
  Activity: Active
Mus musculus [22]
  Activity: Active

## COc1ccc(C#Cc2ncnc3c2cc(C(=O)Nc2ccc(C(C)(C)C)cc2)n3C)cc1
[1]
  IC50: 734 nM

## Cc1ccc(C#Cc2ncnc3c2cc(C(=O)Nc2ccc(C)cc2)n3C)cc1
[1]
  IC50: 947 nM

## COc1ccc(NC(=O)c2cc3c(C#Cc4ccc(F)cc4)ncnc3n2C)cc1
[1]
  IC50: 15.2 nM

## COc1ccc(NC(=O)c2cc3c(C#Cc4ccccn4)ncnc3n2C)cc1
[1]
  IC50: 922 nM

## COc1ccc(C#Cc2ncnc3c2cc(C(=O)Nc2ccccc2)n3C)cc1
[1]
  IC50: 764 nM

## Cn1c(C(=O)Nc2ccc(C(C)(C)C)cc2)cc2c(C#Cc3ccccn3)ncnc21
[1]
  IC50: 2030 nM

## CN(C)c1ccc(NC(=O)c2cc3c(C#Cc4ccc(F)cc4)ncnc3n2C)cc1
[1]
  IC50: 135 nM

## CN(C)c1ccc(NC(=O)c2cc3c(C#Cc4ccccn4)ncnc3n2C)cc1
[1]
  IC50: 2470 nM

## Cc1ccc(C#Cc2ncnc3c2cc(C(=O)Nc2ccc(C(C)(C)C)cc2)n3C)cc1
[1]
  IC50: > 10000 nM

## Cn1c(C(=O)Nc2ccc(F)cc2)cc2c(C#Cc3ccccn3)ncnc21
[1]
  IC50: 3180 nM

## Cn1c(C(=O)Nc2ccc(I)cc2)cc2c(C#Cc3ccccc3)ncnc21
[1]
  IC50: 194 nM

## Cn1c(C(=O)Nc2ccc(Cl)cc2)cc2c(C#Cc3ccc(F)cc3)ncnc21
[1]
  IC50: 248 nM

## Cc1ccc(C#Cc2ncnc3c2cc(C(=O)Nc2ccccc2)n3C)cc1
[1]
  IC50: 1380 nM

## COc1ccc(C#Cc2ncnc3c2cc(C(=O)Nc2ccc(F)cc2)n3C)cc1
[1]
  IC50: 482 nM

## Cc1ccc(NC(=O)c2cc3c(C#Cc4csc(C)n4)ncnc3n2C)cc1
[1]
  IC50: 5570 nM

## Cn1c(C(=O)Nc2ccc(Cl)c(Cl)c2)cc2c(C#Cc3ccccc3)ncnc21
[1]
  IC50: 2030 nM

## Cc1nc(C#Cc2ccnc(Cl)c2)c(C)n1-c1ccc(F)cc1 [BASIMGLURANT]
[1]
  IC50: 4.3 nM

## Cc1nc(C#Cc2ncnc3c2cc(C(=O)Nc2ccccc2)n3C)cs1
[1]
  IC50: 2280 nM

## CNCCC(Oc1ccc(C(F)(F)F)cc1)c1ccccc1 (configuration not stated)
Mus musculus [23]
  Activity: Active
Mus musculus [24]
  Activity: Active
Mus musculus [25]
  Activity: Active
Mus musculus [26]
  Activity: Active
Mus musculus [27]
  Activity: inactive
Mus musculus [28]
  Activity: Active
Mus musculus [29]
  Activity: Active
Mus musculus [30]
  Activity: Active

## Cn1c(C(=O)Nc2ccc(F)cc2)cc2c(C#Cc3ccccc3)ncnc21
[1]
  IC50: 63.6 nM

## Cn1c(C(=O)Nc2ccc(C(C)(C)C)cc2)cc2c(C#Cc3ccc(F)cc3)ncnc21
[1]
  IC50: 2340 nM

## Cc1ccc(C#Cc2ncnc3c2cc(C(=O)Nc2ccc(F)cc2)n3C)cc1
[1]
  IC50: 1010 nM

## Cn1c(C(=O)Nc2ccc(Cl)cc2)cc2c(C#Cc3ccccc3)ncnc21
[1]
  IC50: 622 nM

## COc1ccc(NC(=O)c2cc3c(C#Cc4ccc(C)cc4)ncnc3n2C)cc1
[1]
  IC50: 356 nM

## Cc1ccc(NC(=O)c2cc3c(C#Cc4ccc(F)cc4)ncnc3n2C)cc1
[1]
  IC50: 101 nM

## Cc1ccc(NC(=O)c2cc3c(C#Cc4ccccc4)ncnc3n2C)cc1
[1]
  IC50: 38.9 nM

## Cn1c(C(=O)Nc2ccccc2)cc2c(C#Cc3ccc(F)cc3)ncnc21
[1]
  IC50: 62.2 nM

## Cc1ccc(C#Cc2ncnc3c2cc(C(=O)Nc2ccc(N(C)C)cc2)n3C)cc1
[1]
  IC50: 3760 nM

## COc1ccc(NC(=O)c2cc3c(C#Cc4csc(C)n4)ncnc3n2C)cc1
[1]
  IC50: 236 nM

## CN(C)c1ccc(NC(=O)c2cc3c(C#Cc4ccccc4)ncnc3n2C)cc1
[1]
  IC50: 125 nM

## COc1ccc(C#Cc2ncnc3c2cc(C(=O)Nc2ccc(OC)cc2)n3C)cc1
[1]
  IC50: 84 nM

## Cn1c(C(=O)Nc2ccc(C(C)(C)C)cc2)cc2c(C#Cc3ccccc3)ncnc21
[1]
  IC50: 1390 nM

## Cn1c(C(=O)Nc2ccc(OC(F)(F)F)cc2)cc2c(C#Cc3ccccc3)ncnc21
[1]
  IC50: 308 nM

## Cn1c(C(=O)Nc2cccc(Cl)c2)cc2c(C#Cc3ccccc3)ncnc21
[1]
  IC50: 529 nM
